Data as given in patent US20050232860A1, “Use of edg-receptor agonists for the treatment of hypertension” (priority 2001, published 2005).
Counter-ions that a name gives are not always drawn.

Tests used:
PC12 cells = test: Veratridine-evoked [^3H]noradrenaline release from PC12 cells; format: cell-based, rat; settings: for effect on veratridine-evoked [^3H]noradrenaline release, given alone: CB1 antagonist given alone; for activity at 100 µM: PC-12, read-out: Veratridine (1 mM)-induced [^3H]noradrenaline release (% of controls without drug); for effect on veratridine-evoked [^3H]noradrenaline release (concentration-response): in the absence of rauwolscine / interacting drugs; for effect on veratridine-induced [^3H]noradrenaline release (concentration-response): in the presence of 3 μM rauwolscine; for effect on evoked tritium overflow: 3 μM rauwolscine
Protocol: PC12 cells were cultured in suspension culture as described by Harder and Bönisch (1984). […] For the experiments on intact cells, PC12 cells were cultured in a humidified CO2-incubator (at 37° C. and in the presence of 9% CO2) on dishes (60 mm, Nunc) coated with polyornithine 0.1 g/l (in 0.15 M boric acid, and 67 mM NaOH, adjusted with HCl to pH 8.4). Each culture dish contained about 10^7 cells corresponding to about 1 mg cell protein.
To load the cells with labelled noradrenaline, 10 nM [^3H]noradrenaline was added to the culture medium (3 ml/dish) and the cells were incubated for 3 h in a CO2-incubator (37° C.). To minimize oxidation of the catecholamine, L(+)-ascorbic acid (1 mM) was present in all solutions. The cells were then washed twice with culture medium and incubated for 60 min with [^3H]noradrenaline-free culture medium (with a change of the medium after 30 min). Subsequently the cell dishes were transferred to a water bath of 37° C. (onset of the experiment) and the cells were then incubated until the end of the experiment with prewarmed (37° C.) [^3H]noradrenaline-free HEPES-buffered salt solution (composition in mM unless stated otherwise: NaCl 125, KCl 15, KH2PO4 1.2, CaCl2 2.6, MgSO4 1.2, HEPES-NaOH (pH 7.4) 25, D(+)-glucose 5.6, L(+)-ascorbic acid 1.0) with a change of the medium every 5 min (total incubation time in the HEPES buffer: 85 min). To minimize loss of cells during washing und to inhibit the neuronal noradrenaline transport system the solution contained 1 g/l bovine serum albumin and 1 μM desipramine, respectively (Friedrich and Bönisch, 1986). The agonist and/or antagonist under study was added to the HEPES buffer at the onset of the exposure to this buffer. Sixty min after onset of incubation with the buffer 1 mM veratridine was added for 5 min. In a few experiments, the HEPES-buffered salt solution contained 4.8 instead of 15 mM KCl and stimulation was carried out either by 1 mM veratridine or by increasing the KCl concentration to 15 mM (time schedule identical to the standard procedure). In one series of experiments, culture medium was changed daily (instead of changing it every 3 days as standard condition) and 100 μM clonidine was added to the medium for 72 h. The cells were then washed twice with clonidine-free culture medium (with a change of the medium after 30 min). Subsequently the cell dishes were transferred to a water bath of 37° C. (onset of the experiment) and the cells were then incubated until the end of the experiment with prewarmed (37° C.) [^3H]noradrenaline-free HEPES-buffered salt solution and veratridine was administered 2 h after the end of exposure to clonidine. Basal efflux of tritium was determined in the 5-min period before and in that 20 min after onset of stimulation. Veratridine-evoked tritium overflow was determined in the four 5-min periods after the onset of veratridine application. At the end of the experiment, the cells were solubilized by 0.1% v/v TritonX-100 (in 5 mM Tris-HCl, pH 7.4). The radioactivity of the solubilized cells und of the wash-out samples was determined by liquid scintillation counting.

h(edg2) receptor = target: T1, h(edg2) receptor (Homo sapiens, UniProt Q92633); test: Agonist-induced [^35S]GTPγS binding to membranes from RH7777 cells stably transfected with h(edg2) receptors; format: biochemical; settings: for agonist character at the edg2-receptor: increase to the same extent as for the endogenous ligand LPA; for effect on [^35S]GTPγS-binding: nanomolar concentrations, 10 μM rauwolscine, 0.1 μM GDP
T1 construct: expressed in transfected cells; host or cells: RH7777 cells (rat hepatoma cells), membranes
T1 sequence (Q92633 whole entry): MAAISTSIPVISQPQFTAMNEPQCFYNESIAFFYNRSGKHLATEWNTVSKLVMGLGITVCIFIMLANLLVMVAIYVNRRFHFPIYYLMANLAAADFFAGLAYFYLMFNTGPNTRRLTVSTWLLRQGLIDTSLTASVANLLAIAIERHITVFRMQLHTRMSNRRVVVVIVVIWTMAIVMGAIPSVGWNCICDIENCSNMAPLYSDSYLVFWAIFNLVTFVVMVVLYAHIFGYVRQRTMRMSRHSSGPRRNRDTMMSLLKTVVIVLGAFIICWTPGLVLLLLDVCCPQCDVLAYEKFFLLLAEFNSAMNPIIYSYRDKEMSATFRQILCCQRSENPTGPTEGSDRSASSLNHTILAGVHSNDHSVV
Protocol: RH7777 cells (rat hepatoma cells) stably transfected with cDNA encoding the h(edg2) receptor and PC12 cells were homogenized in ice-cold 20 mM HEPES buffer containing […] EDTA (pH 7.4 at RT) with an ultraturrax homgenizer and centrifuged at 48,000 g, 4° C. for 15 min. The pellet was resuspended in ice-cold 20 mM HEPES buffer containing 0.1 mM EDTA (pH 7.4 at RT) and recentrifuged at 48,000 g, 4° C. for 15 min. The final pellet was resuspended in 20 mM HEPES buffer (pH 7.4 at RT).
50 μg Membranes were incubated in 0.5 ml of GTP-binding buffer containing GDP 0.1 μM, rauwolscine 10 μM (in the experiments with membranes from RH7777 cells), [^35S]GTPγs 0.05 nM and indicated test compound (LPA, clonidine or moxonidine diluted in assay buffer containing 1% fatty acid free BSA) for 45 min at 30° C. The incubation was terminated by filtering over GF/B filters with a cell harvester, and the filters were washed once with 5 ml of ice-cold assay buffer. Radioactivity was counted by liquid scintillation spectrometry at an efficiency of >95%.

α2-adrenoceptors = test: [^3H]rauwolscine radioligand binding to membranes from undifferentiated PC12 cells; set-up: species or system rat; settings: 16.8 nM radioligand; for [^3H]Rauwolscine binding: n=4
Protocol: Results are expressed as mean values±SEM. All experiments were carried out in triplicate.

[1] = drug 100 μM, 3 μM rauwolscine present

## Cc1c(C(=O)NN2CCCCC2)nn(-c2ccc(Cl)cc2Cl)c1-c1ccc(Cl)cc1 [SR141716A, N-[piperidin-1-yl]-5-[4-chlorophenyl]-1-[2,4-dichlorophenyl]-4-methyl-1H-pyrazole-3-carboxamide]
PC12 cells; 1 μM SR141716A
  interaction with the inhibition produced by 100 μM clonidine: counteracted
  interaction with the inhibitory effect of 10 μM 1-oleoyl-LPA: counteracted
PC12 cells; 1 μM SR141716A + 3 μM rauwolscine
  interaction with the inhibitory effect of 0.3 μM CP55,940: antagonized
PC12 cells; 10 μM SR141716A
  effect on the concentration-response curve of clonidine: shifted to the right
PC12 cells
  effect on veratridine-evoked [^3H]noradrenaline release, given alone: did not affect

## Cc1c(C(=O)c2cccc3ccccc23)c2cccc3c2n1[C@@H](CN1CCOCC1)CO3 [WIN55,212-3]
PC12 cells; [1]
  effect on veratridine-induced [^3H]noradrenaline release at 100 μM (in words): did not

## c1ccc(C2CC2)c(OCC2=NCCN2)c1 [Cirazoline, cirazoline hydrochloride]
PC12 cells; Rattus norvegicus
  activity at 100 µM: 17.4 ± 7.5%
PC12 cells; [1]
  effect on veratridine-induced [^3H]noradrenaline release at 100 μM (in words): inhibited

## Clc1cccc(Cl)c1N=C1NCCN1 [Clonidine, clonidine hydrochloride]
PC12 cells; 10 μM clonidine in the presence of 10 μM SR141716A
  effect on [^3H]noradrenaline release: acted facilitatory
PC12 cells; 100 μM clonidine, cells pretreated with 100 μM clonidine for 72 h, n=6
  evoked [^3H]noradrenaline release (% of veratridine-evoked release in the respective control experiments): 171±24%
PC12 cells; Rattus norvegicus
  activity at 100 µM: 25.6 ± 12.2%
PC12 cells; [1]
  effect on veratridine-induced [^3H]noradrenaline release at 100 μM (in words): inhibited
PC12 cells
  effect on veratridine-evoked [^3H]noradrenaline release (concentration-response): concentration-dependently inhibited
  effect on veratridine-induced [^3H]noradrenaline release (concentration-response): concentration-dependently inhibited
h(edg2) receptor
  agonist character at the edg2-receptor: full agonists
  effect on [^35S]GTPγS-binding: provoke an increase

## N=C(N)NCCCCN.O=S(=O)(O)O [Agmatine, agmatine sulfate]
PC12 cells; Rattus norvegicus
  activity at 100 µM: 76.4 ± 9.5%
PC12 cells; [1]
  effect on veratridine-induced [^3H]noradrenaline release at 100 μM (in words): inhibited
PC12 cells
  effect on veratridine-induced [^3H]noradrenaline release (concentration-response): concentration-dependently inhibited

## COc1ccc(-c2sc3cc(OC)ccc3c2C(=O)c2ccc(C#N)cc2)cc1 [LY320135, [6-methoxy-2-(4-methoxyphenyl)benzo[b]thien-3-yl][4-cyanophenyl]methanone]
PC12 cells; 10 μM LY320135
  interaction with the inhibition produced by 100 μM clonidine: counteracted
PC12 cells; 10 μM LY320135 together with 10 μM 1-oleoyl-LPA, n=6
  evoked [^3H]noradrenaline release (% of evoked release in the respective control experiments): 198.8%±39.9%
PC12 cells
  effect on veratridine-evoked [^3H]noradrenaline release, given alone: did not affect

## COC(=O)[C@H]1[C@H]2C[C@H]3c4[nH]c5ccccc5c4CCN3C[C@H]2CC[C@@H]1O [[^3H]Rauwolscine, [O-methyl-3H]rauwolscine]
α2-adrenoceptors; absence of 10 μM rauwolscine
  [^3H]Rauwolscine binding as % of the radioactivity added to each assay: 0.19±0.01%
  [^3H]Rauwolscine binding: 134.0±7.1 fmol/mg protein
α2-adrenoceptors; presence of 10 μM rauwolscine
  [^3H]Rauwolscine binding as % of the radioactivity added to each assay: 0.19±0.01%
  [^3H]Rauwolscine binding: 132.8±7.0 fmol/mg protein

## [(−)-cis-3-[2-hydroxy-4-(1,1-dimethylheptyl)phenyl]-trans-4-(3-hydroxypropyl)-cyclohexane [CP55,940]
PC12 cells; 0.3 μM CP55,940
  effect on evoked tritium overflow: significantly inhibited
PC12 cells; 1 μM CP55,940
  effect on evoked tritium overflow: no inhibition
PC12 cells; 10 μM CP55,940
  effect on evoked tritium overflow: facilitation

## N=C(N)NN1Cc2c(Cl)ccc(Cl)c2C1 [Aganodine, aganodine]
PC12 cells; [1]
  effect on veratridine-induced [^3H]noradrenaline release at 100 μM (in words): inhibited
PC12 cells; drug 100 μM, 15 mM KCl, 1 μM desipramine and 3 μM rauwolscine throughout, means ± SEM of 6-11 experiments
  Veratridine (1 mM)-induced [^3H]noradrenaline release (% of controls without drug): 32.3 ± 5.7%

## Cc1ccccc1NC(=N)Nc1ccccc1C [DTG, 1,3-di(2-tolyl)guanidine]
PC12 cells; Rattus norvegicus
  activity at 100 µM: 63.3 ± 7%
PC12 cells; [1]
  effect on veratridine-induced [^3H]noradrenaline release at 100 μM (in words): inhibited

## lysophospatidic acid [LPA]
h(edg2) receptor
  effect on [^35S]GTPγS-binding: provoke an increase

## CCCCCCCCCCCCC/C=C/[C@@H](O)[C@@H](N)COP(=O)(O)O [S1P, sphingosine-1-phosphate]
PC12 cells; 10 μM S1P, n=6
  evoked [^3H]noradrenaline release (% of veratridine-evoked release in the respective control experiments): 101.7%±31.3%

## CS(=O)(=O)O.Cc1c(C(=O)c2cccc3ccccc23)c2cccc3c2n1[C@H](CN1CCOCC1)CO3 [WIN55,212-2, R(+)-[2,3-dihydro-5-methyl-3-[(morpholinyl)methyl]pyrrolo[1,2,3-de]-1,4-benzoxazin-yl)(1-naphthalenyl)methanone mesylate]
PC12 cells
  effect on veratridine-induced [^3H]noradrenaline release (concentration-response): concentration-dependently inhibited

## Cl.Clc1cccc2c1CN(NC1=NCCN1)C2 [BDF 6143, 4-chloro-2-(2-imidazolin-2-ylamino)-isoindoline hydrochloride]
PC12 cells; Rattus norvegicus
  activity at 100 µM: 74.7 ± 11.1%
PC12 cells; [1]
  effect on veratridine-induced [^3H]noradrenaline release at 100 μM (in words): inhibited
PC12 cells
  effect on veratridine-induced [^3H]noradrenaline release (concentration-response): concentration-dependently inhibited

## CCCCCCCC/C=C\CCCCCCCC(=O)OC[C@@H](O)COP(=O)(O)O [1-oleoyl-LPA, 1-oleoyl-lysophosphatidic acid]
PC12 cells; 10 μM 1-oleoyl-LPA, cells pretreated with 100 μM clonidine for 72 h
  effect on evoked [^3H]noradrenaline release: did not inhibit but tended to increase
PC12 cells
  effect on veratridine-evoked [^3H]noradrenaline release (concentration-response): concentration-dependently inhibited

## NC[C@H](O)c1ccc(O)c(O)c1 [Noradrenaline, noradrenaline base]
PC12 cells; Rattus norvegicus
  activity at 100 µM: 93 ± 11.5%
PC12 cells; [1]
  effect on veratridine-induced [^3H]noradrenaline release at 100 μM (in words): failed to modify

## COC(=O)[C@H]1[C@H]2C[C@H]3c4[nH]c5ccccc5c4CCN3C[C@H]2CC[C@@H]1O [Rauwolscine, Rauwolscine hydrochloride]
PC12 cells; 3 μM rauwolscine versus absence of rauwolscine
  effect on the concentration-response curve of clonidine: did not substantially differ
PC12 cells; 30 μM rauwolscine
  effect on the concentration-response curve of clonidine: shifted to the right
  interaction with the inhibitory effect of 10 μM 1-oleoyl-LPA: counteracted
PC12 cells; rauwolscine 3 μM alone, n=6
  effect on veratridine-induced [^3H]noradrenaline release, given alone: did not significantly modify

## COc1cc2c(c(OC)c1OC)-c1ccc(OC)c(=O)cc1[C@@H](NC(C)=O)CC2 [colchicine]
PC12 cells; Rattus norvegicus, PC-12, read-out: inhibition of veratridine (1 mM)-evoked tritium overflow
  inhibition at 50 µM: 56%

## CCCCC/C=C\C/C=C\C/C=C\C/C=C\CCCC(=O)NCCO [Anandamide, anandamide]
PC12 cells; 1 μM anandamide
  effect on veratridine-evoked [^3H]noradrenaline release: did not affect
PC12 cells; 100 μM anandamide
  effect on veratridine-evoked [^3H]noradrenaline release: enhanced

## COc1nc(C)nc(Cl)c1N=C1NCCN1 [Moxonidine, moxonidine]
PC12 cells; Rattus norvegicus
  activity at 100 µM: 81.6 ± 5.2%
PC12 cells; up to a concentration of 1000 μM, 3 μM rauwolscine present
  effect on veratridine-induced [^3H]noradrenaline release: failed to modify
h(edg2) receptor
  agonist character at the edg2-receptor: full agonists
  effect on [^35S]GTPγS-binding: provoke an increase

## CCCCCCCCCCCCCCCC(=O)OCC(O)COP(=O)(O)O (centres unmarked) [1-palmitoyl-LPA]
PC12 cells; 10 μM 1-palmitoyl-LPA
  effect on evoked [^3H]noradrenaline release: did not alter
PC12 cells; up to 1 μM 1-palmitoyl-LPA
  effect on evoked [^3H]noradrenaline release: concentration-dependently increased
